Values of other authors as cited in patent publication US20020022622A1, “Thiazole, imidazole and oxazole compounds and treatments of disorders associated with protein aging” (priority 2000, published 2002).

Experiments:
[1] = test system: glomerular basement membrane thickness; settings: streptozotocin-diabetic rat model
[2] = test system: immunoglobulin trapping in the kidney; settings: in vivo
red blood cells = settings: in vivo
[3] = test system: aortic wall protein cross-linking; settings: diabetic rats

Structure (SMILES): N=C(N)NN [aminoguanidine]
- increased glomerular basement membrane thickness [1]: prevented
- immunoglobulin trapping in the kidney [2]: reduction
- diabetes-induced changes in the deformability of red blood cells (red blood cells): prevent
- aortic wall protein cross-linking [3]: diminishes
